Assay results taken from patent US12421294B2, “Truncated epiderimal growth factor receptor (EGFRt) for transduced t cell selection” (City of Hope, priority 2009, dated 2025).

Key:
[1] = system: CD19CAR^+EGFRt^+IMPDH2dm^+ Line E cells; assay: MPA resistance culture, IMPDH2dm-expressing Line E cells; type: cell-based, human; settings: 1 uM MPA
[2] = system: control T cell line; assay: MPA resistance culture, control T cells without IMPDH2dm; type: cell-based, human; settings: 1 uM MPA, control T cell line lacking IMPDH2dm

COc1c(C)c2c(c(O)c1C/C=C(\C)CCC(=O)O)C(=O)OC2 [MPA, mycophenolic acid]
survival and/or proliferation in MPA [1]: not inhibited | survival and/or proliferation in MPA [2]: inhibition
